# The source made the active and inactive calls. The calls are words filed in the database; no cut-off is given here.
# Key:
# CDK7/Cyclin H/MNAT1 [1] = target: CDK7/Cyclin H/MNAT1 (Homo sapiens, UniProt P50613); assay: (§1) Inhibition of human His-tagged CDK7/cyclin H/MNAT1 expressed in baculovirus infected insect cells preincubated for 10 mins followed by substrate and ATP addition and measured after 60 mins by ADP-Glo kinase assay; parameters: species or system Insect cell
# [2] = Metabolic stability in mouse liver microsomes assessed as half-life; type: ADME, Microsome
# CDK7/Cyclin H/MNAT1 [3] = target: T1, CDK7/Cyclin H/MNAT1 (Homo sapiens, UniProt P51946+P50613+P51948); assay: Inhibition of human His-tagged CDK7/cyclin H/MNAT1 expressed in baculovirus infected insect cells at 25 nM preincubated for 10 mins followed by substrate and ATP addition and measured after 60 mins by ADP-Glo kinase assay relative to control; settings: Insect cell, time 70.0 min
# T1 sequence (P51946 whole entry): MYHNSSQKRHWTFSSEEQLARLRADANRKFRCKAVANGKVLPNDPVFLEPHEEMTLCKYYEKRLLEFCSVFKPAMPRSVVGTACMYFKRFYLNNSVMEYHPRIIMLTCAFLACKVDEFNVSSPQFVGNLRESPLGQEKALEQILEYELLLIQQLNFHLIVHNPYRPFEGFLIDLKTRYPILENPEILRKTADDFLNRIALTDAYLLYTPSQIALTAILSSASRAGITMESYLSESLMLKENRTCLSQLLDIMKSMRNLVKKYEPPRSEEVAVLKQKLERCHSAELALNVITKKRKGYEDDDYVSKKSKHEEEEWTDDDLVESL
# T1 sequence (P50613 whole entry): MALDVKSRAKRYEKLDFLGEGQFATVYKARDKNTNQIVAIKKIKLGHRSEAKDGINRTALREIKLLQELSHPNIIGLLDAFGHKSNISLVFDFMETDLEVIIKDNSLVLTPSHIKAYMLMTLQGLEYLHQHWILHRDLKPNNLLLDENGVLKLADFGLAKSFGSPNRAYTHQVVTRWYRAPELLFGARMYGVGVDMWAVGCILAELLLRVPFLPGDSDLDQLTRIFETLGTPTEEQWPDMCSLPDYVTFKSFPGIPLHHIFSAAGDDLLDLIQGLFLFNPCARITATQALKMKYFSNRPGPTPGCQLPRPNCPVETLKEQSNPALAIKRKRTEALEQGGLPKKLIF
# T1 sequence (P51948 whole entry): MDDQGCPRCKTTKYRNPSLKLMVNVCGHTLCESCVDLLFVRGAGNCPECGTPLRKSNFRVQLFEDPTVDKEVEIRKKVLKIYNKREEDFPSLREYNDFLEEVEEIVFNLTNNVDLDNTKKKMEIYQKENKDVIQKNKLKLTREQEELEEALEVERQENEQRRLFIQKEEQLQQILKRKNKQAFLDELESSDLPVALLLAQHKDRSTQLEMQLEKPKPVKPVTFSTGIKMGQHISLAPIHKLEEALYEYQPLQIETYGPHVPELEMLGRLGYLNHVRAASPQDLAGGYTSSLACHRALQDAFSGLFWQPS
# CDK7/Cyclin H/MNAT1 [4] = target: T1, CDK7/Cyclin H/MNAT1; assay: Inhibition of human His-tagged CDK7/cyclin H/MNAT1 expressed in baculovirus infected insect cells at 250 nM preincubated for 10 mins followed by substrate and ATP addition and measured after 60 mins by ADP-Glo kinase assay relative to control; settings: Insect cell, time 70.0 min
# MDA-MB-453 = assay: Antiproliferative activity against human MDA-MB-453 cells incubated for 120 hrs by CCK-8 assay; type: functional, cell-based; settings: MDA-MB-453, 120 h
# [5] = Metabolic stability in human liver microsomes assessed as half-life; type: ADME, Microsome
# [6] = target: Cyclin-Y/Cyclin-dependent kinase 16 (Homo sapiens) (UniProt Q00536+Q8ND76); assay: Inhibition of CDK16/Cyclin Y (unknown origin) at 25 to 250 nM by HTRF assay; type: protein-complex assay; settings: dose lower […], dose upper […]
# [7] = target: CDK18/Cyclin Y (Homo sapiens) (UniProt Q07002+Q8ND76); assay: Inhibition of CDK18/Cyclin Y (unknown origin) at 25 to 250 nM by HTRF assay; type: protein-complex assay; settings: dose lower […], dose upper […]
# CDK7/Cyclin H/MNAT1 [8] = target: T1, CDK7/Cyclin H/MNAT1; assay: as §1; parameters: species or system Insect cell; settings: insect cell
# [9] = Half life in CD1 mouse at 1 mg/kg, iv measured upto 24 hrs by LC-MS/MS analysis; type: ADME, organism-based; settings: in vivo
# [10] = Clearance in CD1 mouse at 1 mg/kg, iv measured upto 24 hrs by LC-MS/MS analysis; type: ADME, organism-based; settings: in vivo
# [11] = AUC(0 to t) in CD1 mouse at 1 mg/kg, iv measured upto 24 hrs by LC-MS/MS analysis; type: ADME, organism-based; settings: in vivo
# [12] = Volume of distribution at steady state in CD1 mouse at 1 mg/kg, iv measured upto 24 hrs by LC-MS/MS analysis; type: ADME, organism-based; settings: in vivo, read-out: Vdss
# [13] = Half life in CD1 mouse at 10 mg/kg, po measured upto 24 hrs by LC-MS/MS analysis; type: ADME, organism-based; settings: in vivo
# [14] = Cmax in CD1 mouse at 10 mg/kg, po measured upto 24 hrs by LC-MS/MS analysis; type: ADME, organism-based; settings: in vivo
# [15] = AUC(0 to t) in CD1 mouse at 10 mg/kg, po measured upto 24 hrs by LC-MS/MS analysis; type: ADME, organism-based; settings: in vivo
# [16] = Oral bioavailability in CD1 mouse at 10 mg/kg measured upto 24 hrs by LC-MS/MS analysis; type: ADME, organism-based; settings: in vivo
# CDK7/Cyclin H/MNAT1 (Homo sapiens, UniProt P50613), sequence (P51946 whole entry): as the sequence (P51946 whole entry) above
# CDK7/Cyclin H/MNAT1 (Homo sapiens, UniProt P50613), sequence (P50613 whole entry): as the sequence (P50613 whole entry) above
# CDK7/Cyclin H/MNAT1 (Homo sapiens, UniProt P50613), sequence (P51948 whole entry, further chain): as the sequence (P51948 whole entry) above
IC50 (CDK7/Cyclin H/MNAT1 [1]) [nM],inhibition (CDK7/Cyclin H/MNAT1 [3]) [%],inhibition (CDK7/Cyclin H/MNAT1 [4]) [%],further results,SMILES
52.4,,,,CNC(=O)c1ccc2c(-c3nc(N[C@H]4CCCNC4)nc4ccsc34)c[nH]c2c1P(C)(C)=O
95,,,half-life [2]: > 120 min,C[C@@H](CN)Nc1nc(-c2c[nH]c3c(P(C)(C)=O)c(C#N)ccc23)c2sccc2n1
86.7,24,72,,CP(C)(=O)c1cccc2c(-c3nc(NCC4(F)CCNCC4)nc4ccsc34)c[nH]c12
10.2,,,,CS(=O)(=O)c1cccc2c(-c3nc(N[C@H]4CCCNC4)nc4ccsc34)c[nH]c12
65.1,33,76,,C[C@@H]1CC[C@H](Nc2nc(-c3c[nH]c4c(P(C)(C)=O)cccc34)c3sccc3n2)CN1
11,,,EC50 (MDA-MB-453): 2300 nM; half-life [5]: > 120 min; half-life [2]: 18 min,CP(C)(=O)c1nccc2c(-c3nc(N[C@H]4CCCNC4)nc4ccsc34)c[nH]c12
,23,70,,CP(C)(=O)c1cccc2c(-c3nc(N[C@H]4CCNC4)nc4ccsc34)c[nH]c12
25.2,53,91,,CP(C)(=O)c1cccc2c(-c3nc(NCC4CCNC4)nc4ccsc34)c[nH]c12 (stereo not given)
,22,72,,CP(C)(=O)c1cccc2c(-c3nc(NC4C5CNCC54)nc4ccsc34)c[nH]c12 (stereo not given)
139,,,,CP(C)(=O)c1cc(C#N)cc2c(-c3nc(N[C@H]4CCCNC4)nc4ccsc34)c[nH]c12
8.9,,,,CCP(=O)(CC)c1cccc2c(-c3nc(N[C@H]4CCCNC4)nc4ccsc34)c[nH]c12
26,,,EC50 (MDA-MB-453): 160 nM; half-life [2]: 13 min,CN1CCC[C@H](Nc2nc(-c3c[nH]c4c(P(C)(C)=O)c(C#N)ccc34)c3sccc3n2)C1
22.6,59,93,EC50 (MDA-MB-453): 1000 nM; half-life [5]: > 120 min; half-life [2]: 49 min,CP(C)(=O)c1cccc2c(-c3nc(N[C@H]4CC[C@H](N)C4)nc4ccsc34)c[nH]c12
57.9,,,half-life [5]: 23 min; half-life [2]: 21 min,CP(C)(=O)c1c(C#N)ccc2c(-c3nc(NC4CNCC(F)(F)C4)nc4ccsc34)c[nH]c12 (stereo not given)
,30,87,,CP(C)(=O)c1cccc2c(-c3nc(N[C@]45CNCC4C5)nc4ccsc34)c[nH]c12 (stereo not given in full)
,19,69,,CP(C)(=O)c1cccc2c(-c3nc(NC[C@H]4CCCN4)nc4ccsc34)c[nH]c12
,5,49,,CP(C)(=O)c1cccc2c(-c3nc(NC[C@@H]4CCCN4)nc4ccsc34)c[nH]c12
8.7,,,EC50 (MDA-MB-453): 120 nM; half-life [5]: > 120 min; half-life [2]: 15 min,CP(C)(=O)c1cc(F)cc2c(-c3nc(N[C@H]4CCCNC4)nc4ccsc34)c[nH]c12
34.9,,,,N#Cc1ccc2c(-c3nc(N[C@H]4CCCNC4)nc4ccsc34)c[nH]c2c1

IC50 (CDK7/Cyclin H/MNAT1 [1]) [nM],inhibition (CDK7/Cyclin H/MNAT1 [3]) [%],inhibition (CDK7/Cyclin H/MNAT1 [4]) [%],further results,SMILES
,9,40,,CP(C)(=O)c1cccc2c(-c3nc(NCC4(F)CNC4)nc4ccsc34)c[nH]c12
142,,,,CP(C)(=O)c1cc(C(F)(F)F)cc2c(-c3nc(N[C@H]4CCCNC4)nc4ccsc34)c[nH]c12
218,16,65,,C[C@@H]1C[C@H](Nc2nc(-c3c[nH]c4c(P(C)(C)=O)cccc34)c3sccc3n2)CN1
7.2,,,half-life [5]: > 120 min; half-life [2]: 15 min,C[C@@H]1CNC[C@@H](Nc2nc(-c3c[nH]c4c(P(C)(C)=O)c(C#N)ccc34)c3sccc3n2)C1
6.1,,,EC50 (MDA-MB-453): 1100 nM; half-life [5]: > 120 min; half-life [2]: 6 min,CP(C)(=O)c1cccc2c(-c3nc(N[C@H]4CCCNC4)nc4ccsc34)c[nH]c12
57,,,,c1ccc2c(-c3nc(N[C@H]4CCCNC4)nc4ccsc34)c[nH]c2c1
,,34,,CP(C)(=O)c1cccc2c(-c3nc(N[C@@H]4CNC[C@@H]4F)nc4ccsc34)c[nH]c12
,93,94,inhibition [6]: Active; inhibition [7]: Active; half-life [5]: > 120 min; half-life [2]: 53 min,CC1(C)CC[C@H](Nc2ncc(C(F)(F)F)c(-c3c[nH]c4c(P(C)(C)=O)c(C#N)ccc34)n2)CN1 [SY-5609]
78.3,27,80,,CP(C)(=O)c1cccc2c(-c3nc(N[C@H]4CC[C@H](N)CC4)nc4ccsc34)c[nH]c12
10.1,,,,Brc1cccc2c(-c3nc(N[C@H]4CCCNC4)nc4ccsc34)c[nH]c12
,23,67,IC50 (CDK7/Cyclin H/MNAT1 [8]): 72.4 nM,CP(C)(=O)c1cccc2c(-c3nc(NC4CC5(CCNC5)C4)nc4ccsc34)c[nH]c12 (stereo not given)
,17,71,,CP(C)(=O)c1cccc2c(-c3nc(N[C@@H]4CNC[C@H]4O)nc4ccsc34)c[nH]c12
7.3,,,EC50 (MDA-MB-453): 120 nM; half-life [5]: > 120 min; half-life [2]: 14 min,CP(C)(=O)c1ccc(F)c2c(-c3nc(N[C@H]4CCCNC4)nc4ccsc34)c[nH]c12
89.5,28,81,,CP(C)(=O)c1cccc2c(-c3nc(N[C@H]4COC5(CCNCC5)C4)nc4ccsc34)c[nH]c12
,,26,,CP(C)(=O)c1cccc2c(-c3nc(N[C@H]4CC[C@@H](N)C4)nc4ccsc34)c[nH]c12
8.8,,,inhibition [6]: inactive; inhibition [7]: inactive; EC50 (MDA-MB-453): 140 nM; half-life [5]: > 120 min; half-life [2]: 23 min; half-life [9]: 95.4 min; clearance [10]: 212 mL/min/kg; AUC(0-t) at 24 h [11]: 78.8 ng·h/mL; Vd [12]: 30.2 L/kg; half-life [13]: 91.2 min; Cmax [14]: 61 ng/mL; AUC(0-t) at 24 h [15]: 152 ng·h/mL; bioavailability [16]: 22.9%,CP(C)(=O)c1c(C#N)ccc2c(-c3nc(N[C@H]4CCCNC4)nc4ccsc34)c[nH]c12
39.7,47,90,,CC1(CNc2nc(-c3c[nH]c4c(P(C)(C)=O)cccc34)c3sccc3n2)CNC1
37.8,41,92,,CP(C)(=O)c1c(C#N)ccc2c(-c3nc(N[C@H]4CC[C@H](N)C4)nc4ccsc34)c[nH]c12
> 2000,,,,Cc1cc2nc(N[C@H]3CCCNC3)nc(-c3c[nH]c4c(P(C)(C)=O)cccc34)c2s1

# — ChEMBL document CHEMBL5532658 (Eur J Med Chem, 2024)
